Source: the PolyMetriX glass transition set
± gives the standard deviation of the reports.

| Compound | glass transition temperature [°C] |
| --- | --- |
| *c1ccc(Oc2ccc(-c3ccc(Oc4ccc(N5C(=O)c6ccc(Oc7ccccc7Oc7ccc8c(c7)C(=O)N(*)C8=O)cc6C5=O)cc4C(F)(F)F)cc3)cc2)c(C(F)(F)F)c1 (repeat unit) | 208.00 |
| *CC(CN1C(=O)C2C3C=CC(C3)C2C1=O)O* (repeat unit) | 87.50 |
| *C(=O)OCCN(CCOC(=O)c1ccc2c(c1)C(=O)N(c1c(C)cc(Cc3cc(C)c(N4C(=O)c5ccc(*)cc5C4=O)c(C)c3)cc1C)C2=O)c1ccc(/N=N/c2ccc([N+](=O)[O-])cc2[N+](=O)[O-])cc1 (repeat unit) | 176.00 |
| *c1ccc2c(c1)C(=O)N(c1cc(NC(=O)OCCN(CCOC(=O)Nc3cc(N4C(=O)c5ccc(C(*)(C(F)(F)F)C(F)(F)F)cc5C4=O)ccc3C)c3ccc(/N=N/c4ccc([N+](=O)[O-])cc4)cc3)ccc1C)C2=O (repeat unit) | 196.00 |
| *C(=O)Oc1ccc(C23CC4CC(CC(C4)C2)C3)c(OC(=O)c2ccc3c(c2)C(=O)N(c2ccc(-c4ccc(N5C(=O)c6ccc(*)cc6C5=O)cc4C)c(C)c2)C3=O)c1 (repeat unit) | 225.00 |
| *CCCCCCCN1C(=O)c2ccc(C(=O)Oc3ccc(-c4ccc(OC(=O)c5ccc6c(c5)C(=O)N(*)C6=O)cc4)cc3)cc2C1=O (repeat unit) | 117.00 |
| *CCCCCCCCCCCCCCCCCCCCOC(=O)CC(=O)O* (repeat unit) | -35.10 |
| *c1ccc(C(=O)c2ccc(C(=O)c3ccc(S(*)(=O)=O)cc3)cc2)cc1 (repeat unit) | 213.50 |
| *Nc1ccc(NC(=O)CCCCCCC(*)=O)cc1 (repeat unit) | 138.00 |
| *CC(*)c1ccc(B(Oc2cccc3cccnc23)c2ccc(C(C)(C)C)cc2)cc1 (repeat unit) | 240.00 |
| *c1ccc(Oc2cccc(Oc3ccc(N4C(=O)c5ccc(Oc6ccc(Oc7ccc8c(c7)C(=O)N(*)C8=O)cc6)cc5C4=O)cc3)c2)cc1 (repeat unit) | 199.00 |
| *CC(*)C(=O)OCCCCCC (repeat unit) | -57.00 |
| *CCCCNC(=O)CCCCC(=O)N* (repeat unit) | 58.00 |
| *OP(=O)(Oc1ccc(Br)cc1)Oc1c(Br)cc(C(c2cc(Br)c(*)c(Br)c2)(C(F)(F)F)C(F)(F)F)cc1Br (repeat unit) | 152.00 |
| *CCCCCCOC(=O)OCCCCCCCCCCCCOC(=O)OCCCCCCn1c(=O)c2cc3c(=O)n(*)c(=O)c3cc2c1=O (repeat unit) | -9.00 |
| *CC(*)(C)C(=O)OCCN(CC)c1ccccc1 (repeat unit) | 37.50 |
| *CC(*)C(=O)OCC(CC)CCCC (repeat unit) [Poly(2-ethylhexyl acrylate)] | -57.08 ± 7 |
| *O[Si](*)(C)CCCCCCCCCCC(=O)Oc1ccc(C(=O)Oc2ccc(-c3ccc(OC(=O)CCCCC(=O)OC4CC(C)CCC4C(C)C)cc3)cc2)cc1 (repeat unit) | 32.40 |
| *Nc1ccc(Cc2ccc(NC(=O)c3cc(NC(=O)c4ccc(NC(=O)C(CC(C)C)N5C(=O)c6ccccc6C5=O)cc4)cc(C(*)=O)c3)cc2)cc1 (repeat unit) | 238.00 |
| *Oc1ccc(S(=O)(=O)c2ccc(Oc3ccc(C4(c5ccc(Oc6ccc(S(=O)(=O)c7ccc(Oc8ccc(/C=C9\CC/C(=C\c%10ccc(*)cc%10)C9=O)cc8)cc7)cc6)cc5)CCCC4)cc3)cc2)cc1 (repeat unit) | 240.00 |
| *OP(=O)(Oc1ccc(C(C)(C)c2ccc(*)cc2)cc1)OC1CCCCC1 (repeat unit) | 86.00 |
| *C(=O)c1ccc2nc(-c3ccc(-c4nc5ccc(*)cc5nc4-c4ccccc4)cc3)c(-c3ccccc3)nc2c1 (repeat unit) | 325.00 |
| *Oc1ccc(C(C)(C)c2ccc(OC(=O)c3cccc(Oc4cccc(C(*)=O)c4)c3)cc2)cc1 (repeat unit) | 85.00 |

| Compound | glass transition temperature [°C] |
| --- | --- |
| *Oc1cccc(C(=O)Nc2ccc(-c3ccc(NC(=O)c4cccc(Oc5nc(*)nc(Sc6ccccc6)n5)c4)cc3)cc2)c1 (repeat unit) | 279.00 |
| *C/C=C/C[Si](*)(C=C)C=C (repeat unit) | -65.00 |
| *C(=O)c1ccc2c(c1)C(=O)N(c1ccc(-c3cc(-c4ccc(OCCCC#N)cc4)cc(-c4ccc(N5C(=O)c6ccc(*)cc6C5=O)cc4)n3)cc1)C2=O (repeat unit) | 342.00 |
| *Oc1ccc(S(=O)(=O)c2ccc(Oc3c(C)cc(C(c4cc(C)c(*)c(C)c4)(C(F)(F)F)C(F)(F)F)cc3C)cc2[Si](C)(C)C)c([Si](C)(C)C)c1 (repeat unit) | 197.00 |
| *CC(*)C(=O)OC12CC3CC(CC(C3)C1)C2 (repeat unit) | 183.00 |
| *CCCCCOC(=O)c1ccccc1C(=O)[O][Cd][O]C(=O)c1ccccc1C(=O)OCCCCCOC(=O)NCCCCCCNC(=O)O* (repeat unit) | -6.80 |
| *Oc1ccc(C(=O)OCCCOC(=O)c2ccc(*)cc2)cc1 (repeat unit) | 57.00 |
| *CCN(CCN1C(=O)c2ccc(C(c3ccc4c(c3)C(=O)N(*)C4=O)(C(F)(F)F)C(F)(F)F)cc2C1=O)c1ccc(/N=N/c2ccc(C#N)cc2)cc1 (repeat unit) | 213.00 |
| *CC1CC(*)OCO1 (repeat unit) [Poly(vinyl formal) ] | 104 ± 21 |
| *C(=O)c1cc2c(cc1Cl)C(=O)N(c1cc(C(=O)O)cc(N3C(=O)c4cc(*)c(Cl)cc4C3=O)c1)C2=O (repeat unit) | 368.00 |
| *c1cc(CCCCCCOC(=O)COC)c(*)s1 (repeat unit) | 37.00 |
| *CC1(C)CC(N2C(=O)c3ccc(-c4ccc5c(c4)C(=O)N(*)C5=O)cc3C2=O)CC(C)(C)C1 (repeat unit) | 311.00 |
| *CC(CO)(CCl)COc1ccc(C(c2ccc(O*)cc2)(C(F)(F)F)C(F)(F)F)cc1 (repeat unit) | 107.00 |
| *C(F)(F)C1(*)OC(F)(F)C(F)(C(F)(F)F)O1 (repeat unit) | 135.00 |
| *C(=O)Oc1ccc(C(C)(C)c2ccc(OC(=O)c3ccc4c(c3)C(=O)N(c3ccc(-c5ccc(N6C(=O)c7ccc(*)cc7C6=O)cc5C)c(C)c3)C4=O)cc2)cc1 (repeat unit) | 166.00 |
| *CNC(=O)OCC(OC(=O)NCc1ccc(C(CCC)c2ccc(*)o2)o1)c1ccco1 (repeat unit) | 43.00 |
| *CC(*)CC1CCCCC1 (repeat unit) | 75.00 |
| *Oc1ccc2cc(C(*)=O)ccc2c1 (repeat unit) | 147.00 |
| */C=C/c1cc(OCCCCCCCC)c(*)cc1OC (repeat unit) | 58.00 |
| *CC1CCC(COC(=O)c2ccc(C(=O)O*)cc2)CC1 (repeat unit) | 84.50 |
| *Oc1ccc(C(=O)Nc2ccc(Cc3ccc(NC(=O)c4ccc(Oc5nc(*)nc(Sc6ccccc6)n5)cc4)cc3)cc2)cc1 (repeat unit) | 302.00 |
| *CC(*)C(F)(F)F (repeat unit) [Poly(3,3,3-trifluoropropylene) ] | 27 ± 2.3 |
| *c1ccc(OC(=O)c2ccc(C(=O)Oc3ccc(C4(*)OC(=O)c5ccccc54)cc3)cc2)cc1 (repeat unit) | 279.00 |
